Source: BindingDB's records for doi:10.1021/acs.jmedchem.5b00984 (Astrazeneca, 2015)

Target: T1, Progesterone receptor (Homo sapiens, UniProt P06401)
T1 sequence (P06401 whole entry): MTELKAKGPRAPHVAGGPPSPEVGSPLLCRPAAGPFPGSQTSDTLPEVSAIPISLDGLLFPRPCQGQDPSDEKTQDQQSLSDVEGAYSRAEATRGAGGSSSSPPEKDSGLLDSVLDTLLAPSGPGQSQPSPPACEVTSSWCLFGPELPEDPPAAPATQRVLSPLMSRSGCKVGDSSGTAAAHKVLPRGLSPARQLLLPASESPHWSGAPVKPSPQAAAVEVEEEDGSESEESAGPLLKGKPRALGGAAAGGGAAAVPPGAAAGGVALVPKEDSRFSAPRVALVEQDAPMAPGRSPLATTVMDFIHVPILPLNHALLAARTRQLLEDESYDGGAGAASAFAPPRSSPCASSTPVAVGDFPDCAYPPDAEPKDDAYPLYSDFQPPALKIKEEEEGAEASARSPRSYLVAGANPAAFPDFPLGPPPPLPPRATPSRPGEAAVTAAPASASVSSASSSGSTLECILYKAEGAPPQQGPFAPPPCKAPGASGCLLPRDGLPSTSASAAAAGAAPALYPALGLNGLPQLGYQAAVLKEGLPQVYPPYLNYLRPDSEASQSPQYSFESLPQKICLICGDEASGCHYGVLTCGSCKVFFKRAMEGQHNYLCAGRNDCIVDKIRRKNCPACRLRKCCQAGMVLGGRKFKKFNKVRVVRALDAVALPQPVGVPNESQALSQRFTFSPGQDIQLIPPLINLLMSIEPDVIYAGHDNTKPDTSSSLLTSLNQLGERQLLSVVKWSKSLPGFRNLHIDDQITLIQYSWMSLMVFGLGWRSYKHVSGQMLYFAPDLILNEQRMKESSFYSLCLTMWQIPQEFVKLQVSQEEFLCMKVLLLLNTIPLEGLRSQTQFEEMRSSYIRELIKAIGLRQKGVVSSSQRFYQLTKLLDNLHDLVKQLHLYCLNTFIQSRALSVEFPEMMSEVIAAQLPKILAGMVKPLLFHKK
Test: Antagonist activity at progesterone receptor in human MCF cells assessed as estradiol-induced receptor response

Compound	IC50
C[C@@H]1Cc2c([nH]c3ccccc23)[C@@H](c2ccc(/C=C/C(=O)O)cc2)N1CC(C)(C)F	3.5 nM
C[C@@H](CO)CN1[C@H](c2ccc(/C=C/C(=O)O)cc2)c2[nH]c3ccccc3c2C[C@H]1C	50 nM
OCCN1CCc2c([nH]c3ccccc23)C1c1ccc(Cl)cc1 (centres undefined)	2690 nM
C[C@]12CC[C@@H]3c4ccc(O)cc4C[C@@H](CCCCCCCCC[S+]([O-])CCCC(F)(F)C(F)(F)F)[C@H]3[C@@H]1CC[C@@H]2O (some centres undefined)	0.209 nM
CC/C(=C(\c1ccccc1)c1ccc(/C=C/C(=O)O)cc1)c1ccccc1 [(E)-3-[4-((Z)-1,2-Diphenyl-but-1-enyl)-phenyl]-acrylic acid]	3980 nM
CC/C(=C(\c1ccc(O)cc1)c1ccc(/C=C/C(=O)O)cc1)c1ccccc1 [GW7604]	12 nM
CC/C(=C(\c1ccc(O)cc1)c1ccc(OCCN(C)C)cc1)c1ccccc1 [[3H]4-OHT]	0.794 nM

Second part, the compound after the results:

IC50	Compound
0.832 nM	CC(C)CN1[C@H](c2c(F)cc(/C=C/C(=O)O)cc2F)c2[nH]c3ccccc3c2C[C@H]1C
3.6 nM	CC(C)CN1[C@H](c2ccc(/C=C/C(=O)O)cc2)c2[nH]c3ccccc3c2C[C@H]1C
2290 nM	C[C@@H]1Cc2c([nH]c3ccccc23)[C@@H](c2ccc(/C=C/C(=O)O)cc2)N1CCO
2090 nM	C[C@@H]1Cc2c([nH]c3ccccc23)[C@@H](c2ccc(Cl)cc2)N1C[C@H](C)C(=O)O
912 nM	C[C@@H]1Cc2c([nH]c3ccc(O)cc23)[C@@H](c2ccc(Cl)cc2)N1CCO
1510 nM	C[C@@H]1Cc2c([nH]c3ccccc23)[C@@H](c2ccc(Cl)cc2)N1CCC(=O)O
724 nM	C[C@@H]1Cc2c([nH]c3ccccc23)[C@@H](c2ccc(Cl)cc2)N1CCO
